Test results from patent publication US20240293386A1, “NOVEL COMPOUND AS PROTEIN KINASE INHIBITOR” (LG CHEM, LTD., priority 2021, published 2024).

Tests used:
[1] = molecular target: RON (Homo sapiens, UniProt Q04912); test: Evaluation of inhibitory activity against RON (TR-FRET); type: biochemical; conditions: TR-FRET enzyme assay, RON protein, ULight-labeled Poly GT substrate, ATP
Description: In order to measure the inhibitory activity of each of the compounds of Examples against RON, the IC50 of each of the compounds was measured using Time-resolved fluorescence energy transfer (TR-FRET).
(§1) Specifically, the compound was prepared to a concentration of 1 mM in 100% DMSO and was diluted 10 times in a stepwise manner through 3-fold dilution. The compound (2 μL) diluted in a stepwise manner was added to a 96-well-plate containing 48 μL of a 1× kinase reaction buffer (50 mM HEPES (pH 7.4), 0.01% Tween-20, 5 mM DTT, 0.5 mM Na3VO4, 2 mM EGTA, 10 mM MgCl2).
The RON protein was diluted to a concentration of 49.3 nM in a RON storage buffer (50 mM Tris-HCl (pH 7.5), 150 mM NaCl, 0.5 mM EDTA, 0.02% Triton X-100), and then diluted again to a concentration of 0.4 nM in a 1× kinase reaction buffer. As a substrate cocktail, a RON-specific substrate mixed solution (40 uM ULight-labeled Poly GT, 100 nM ATP) was prepared at a concentration 2 times the final reaction concentration.
(§2) Thereafter, a 384-well-plate was prepared, and 2.5 μL of each of the diluted compounds of Examples was added to a corresponding well of experimental group wells, and 2.5 μL of a 4% DMSO solution was dispensed into high control wells and low control wells.
(§3) Thereafter, 2.5 μL of 0.4 nM RON was dispensed into each of the high control wells and the experimental group wells, and 2.5 μL of the 1× kinase reaction buffer was added to the low control wells, and all the wells were centrifuged at room temperature for 40 seconds at 1,000 RPM, and then incubated at room temperature for 20-30 minutes. Then, 5 μL of the substrate cocktail (2×) was dispensed into each well, and all the wells were centrifuged at room temperature for 40 seconds at 1,000 RPM, and then incubated at room temperature for 60 minutes. Thereafter, 5 μL of 30 mM EDTA was added to each well to terminate the reaction, and all the wells were then incubated again at room temperature for 5 minutes. Thereafter, 5 μL of a 4× phosphotyrosine antibody (Perkin Elmer) containing europium was added to each well, and all the wells were then incubated at room temperature for 60 minutes. After the incubation, the 384-well-plate was read with the Vison plate reader. In this case, the excitation wavelength was 340 nm, and the emission wavelength was 620 nm and 665 nm. The IC50 value of each compound of Examples was derived using the GraphPd Prism7 program.

[2] = molecular target: cMET (Homo sapiens, UniProt P08581); test: Evaluation of inhibitory activity against MET (TR-FRET); type: biochemical; conditions: TR-FRET enzyme assay, cMET protein, TK peptide substrate, ATP
Chain of cMET (P08581 25-1390): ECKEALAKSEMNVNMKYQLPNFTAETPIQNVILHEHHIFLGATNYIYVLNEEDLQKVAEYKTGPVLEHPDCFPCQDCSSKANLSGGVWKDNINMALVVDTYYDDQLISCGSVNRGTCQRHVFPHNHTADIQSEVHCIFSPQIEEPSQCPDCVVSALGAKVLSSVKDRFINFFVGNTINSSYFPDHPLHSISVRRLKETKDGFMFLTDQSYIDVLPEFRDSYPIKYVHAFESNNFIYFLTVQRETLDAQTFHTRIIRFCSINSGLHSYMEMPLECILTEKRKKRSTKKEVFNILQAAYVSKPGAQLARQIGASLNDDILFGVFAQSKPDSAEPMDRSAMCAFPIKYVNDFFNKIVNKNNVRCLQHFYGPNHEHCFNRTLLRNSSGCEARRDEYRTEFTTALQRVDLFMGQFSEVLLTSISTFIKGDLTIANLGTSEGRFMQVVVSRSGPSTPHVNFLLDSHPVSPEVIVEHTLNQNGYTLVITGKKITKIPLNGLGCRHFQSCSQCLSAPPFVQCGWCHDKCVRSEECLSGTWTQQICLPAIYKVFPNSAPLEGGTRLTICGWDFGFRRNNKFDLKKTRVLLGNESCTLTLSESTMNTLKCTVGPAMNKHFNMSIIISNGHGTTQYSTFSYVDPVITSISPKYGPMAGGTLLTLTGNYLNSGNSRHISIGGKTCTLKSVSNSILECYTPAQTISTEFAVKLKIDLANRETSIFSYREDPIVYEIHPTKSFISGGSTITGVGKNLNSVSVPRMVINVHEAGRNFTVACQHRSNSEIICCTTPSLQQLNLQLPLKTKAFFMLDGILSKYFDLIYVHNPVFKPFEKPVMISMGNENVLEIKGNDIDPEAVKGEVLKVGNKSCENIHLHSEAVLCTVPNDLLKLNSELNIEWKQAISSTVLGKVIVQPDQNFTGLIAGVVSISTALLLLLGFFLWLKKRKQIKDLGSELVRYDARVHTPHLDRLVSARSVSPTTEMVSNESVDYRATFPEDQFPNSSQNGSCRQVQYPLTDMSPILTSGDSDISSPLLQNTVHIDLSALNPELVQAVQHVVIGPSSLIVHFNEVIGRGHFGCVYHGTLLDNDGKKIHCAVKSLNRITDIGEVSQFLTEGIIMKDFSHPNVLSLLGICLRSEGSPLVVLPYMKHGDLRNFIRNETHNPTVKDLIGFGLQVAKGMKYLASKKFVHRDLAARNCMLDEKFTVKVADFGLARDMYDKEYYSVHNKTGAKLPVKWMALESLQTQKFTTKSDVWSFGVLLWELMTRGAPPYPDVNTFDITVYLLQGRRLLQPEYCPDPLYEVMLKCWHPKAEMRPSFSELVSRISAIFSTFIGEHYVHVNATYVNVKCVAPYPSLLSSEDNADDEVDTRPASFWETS
Description: In addition, in order to measure the enzyme activity inhibition for cMET, the evaluation was performed in the same manner as the enzyme activity inhibition measurement experiment for RON.
as §1, with “7.4), 0.05% BSA, 0.005%” for “7.4), 0.01%”, “Tween-20, 1” for “Tween-20, 5”, “mM MnCl2, 20” for “mM Na3VO4, 2 mM EGTA, 10”
The cMET protein was diluted to a concentration of 263 nM in a cMET storage buffer (50 mM Tris-HCl (pH 7.5), 150 mM NaCl, 0.05% Brij35, 1 mM DTT, 10% Glycerol), and then diluted again to a concentration of 2 nM in a 1× kinase reaction buffer. As a substrate cocktail, a MET-specific substrate mixed solution (5 μM TK peptide, 10 mM ATP) was prepared at a concentration 2 times the final reaction concentration.
as §2
as §3, with “of 2” for “of 0.4”, “nM cMET” for “nM RON”, “of 90” for “of 30”

Chain of RON (Q04912 25-1400, species assumed): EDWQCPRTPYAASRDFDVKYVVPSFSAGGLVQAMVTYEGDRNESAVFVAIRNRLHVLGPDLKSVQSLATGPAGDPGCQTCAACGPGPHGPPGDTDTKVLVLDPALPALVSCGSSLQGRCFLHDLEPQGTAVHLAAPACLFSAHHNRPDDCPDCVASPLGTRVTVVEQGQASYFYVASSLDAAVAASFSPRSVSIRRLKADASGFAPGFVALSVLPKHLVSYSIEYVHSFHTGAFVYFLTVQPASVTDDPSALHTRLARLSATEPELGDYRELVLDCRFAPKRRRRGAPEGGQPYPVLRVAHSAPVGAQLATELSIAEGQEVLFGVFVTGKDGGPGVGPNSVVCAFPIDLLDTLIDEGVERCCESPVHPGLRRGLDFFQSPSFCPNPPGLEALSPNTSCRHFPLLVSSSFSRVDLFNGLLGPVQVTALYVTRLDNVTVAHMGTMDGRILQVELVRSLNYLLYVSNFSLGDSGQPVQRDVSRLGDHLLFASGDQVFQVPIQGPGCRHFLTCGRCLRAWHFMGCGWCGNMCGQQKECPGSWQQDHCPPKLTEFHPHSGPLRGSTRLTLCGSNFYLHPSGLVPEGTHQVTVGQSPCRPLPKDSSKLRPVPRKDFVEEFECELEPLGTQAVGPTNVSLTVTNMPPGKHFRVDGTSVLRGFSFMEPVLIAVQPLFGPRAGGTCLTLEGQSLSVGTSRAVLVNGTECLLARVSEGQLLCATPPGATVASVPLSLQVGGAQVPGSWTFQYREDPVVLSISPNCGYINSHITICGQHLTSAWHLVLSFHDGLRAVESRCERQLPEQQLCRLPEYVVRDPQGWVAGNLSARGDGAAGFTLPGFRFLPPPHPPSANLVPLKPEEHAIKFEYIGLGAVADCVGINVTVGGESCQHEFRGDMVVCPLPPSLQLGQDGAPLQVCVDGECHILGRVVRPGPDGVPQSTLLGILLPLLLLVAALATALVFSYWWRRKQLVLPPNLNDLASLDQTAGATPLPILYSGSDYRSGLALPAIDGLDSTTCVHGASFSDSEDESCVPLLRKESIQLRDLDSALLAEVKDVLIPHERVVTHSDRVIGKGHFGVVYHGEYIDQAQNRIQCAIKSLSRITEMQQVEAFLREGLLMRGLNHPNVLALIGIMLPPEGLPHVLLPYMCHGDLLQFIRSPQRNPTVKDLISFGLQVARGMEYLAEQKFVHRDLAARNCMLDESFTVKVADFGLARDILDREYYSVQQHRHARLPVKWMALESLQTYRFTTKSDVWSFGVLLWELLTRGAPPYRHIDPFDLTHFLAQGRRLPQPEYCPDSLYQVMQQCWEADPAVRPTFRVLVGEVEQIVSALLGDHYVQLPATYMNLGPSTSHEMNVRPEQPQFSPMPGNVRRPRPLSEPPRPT

Compound | IC50 [1] [nM] | IC50 [2] [nM]
CCOc1ccn(-c2ccc(F)cc2)c(=O)c1C(=O)Nc1ccc(-c2ccc3nc(N)sc3n2)c(C)c1 [Example 1, N-(4-(2-aminothiazolo[5,4-b]pyridin-5-yl)-3-methylphenyl)-4-ethoxy-1-(4-fluorophenyl)-2-oxo-1,2-dihydropyridine-3-carboxamide] | 5120 | 5230
CCOc1ccn(-c2ccc(F)cc2)c(=O)c1C(=O)Nc1ccc(Nc2ccc3nc(N)sc3n2)c(F)c1 [Example 3, N-(4-((2-aminothiazolo[5,4-b]pyridin-5-yl)amino)-3-fluorophenyl)-4-ethoxy-1-(4-fluorophenyl)-2-oxo-1,2-dihydropyridine-3-carboxamide] | – | 6720
Cc1ccc(C(=O)Nc2ccc(Oc3cc(Cl)nn4ccnc34)c(F)c2)c(=O)n1-c1ccc(F)cc1 [Example 6, N-(4-((6-chloroimidazo[1,2-b]pyridazin-8-yl)oxy)-3-fluorophenyl)-1-(4-fluorophenyl)-6-methyl-2-oxo-1,2-dihydropyridine-3-carboxamide] | – | 8270
COc1ccn(-c2ccc(F)cc2)c(=O)c1C(=O)Nc1ccc(-c2ccnc(-c3ccnc(N)n3)c2)c(F)c1 [Example 15, N-(4-(2-(2-aminopyrimidin-4-yl)pyridin-4-yl)-3-fluorophenyl)-1-(4-fluorophenyl)-4-methoxy-2-oxo-1,2-dihydropyridine-3-carboxamide] | – | 4860
Cc1ccc(C(=O)Nc2ccc(-c3ccnc(-c4ccnc(N)n4)c3)c(F)c2)c(=O)n1-c1ccc(F)cc1 [Example 16, N-(4-(2-(2-aminopyrimidin-4-yl)pyridin-4-yl)-3-fluorophenyl)-1-(4-fluorophenyl)-6-methyl-2-oxo-1,2-dihydropyridine-3-carboxamide] | – | 1490
CCOc1ccn(-c2ccc(F)cc2)c(=O)c1C(=O)Nc1ccc(-c2ccc3c(N)n[nH]c3c2)c(F)c1 [Example 18, N-(4-(3-amino-1H-indazol-6-yl)-3-fluorophenyl)-4-ethoxy-1-(4-fluorophenyl)-2-oxo-1,2-dihydropyridine-3-carboxamide] | 467 | 496
CCOc1ccn(-c2ccc(F)cc2)c(=O)c1C(=O)Nc1ccc(-c2ccc3[nH]ncc3c2)c(F)c1 [Example 19] | – | 6540
CCOc1ccn(-c2ccc(F)cc2)c(=O)c1C(=O)Nc1ccc(-c2ccc3snc(N)c3c2)c(F)c1 [Example 21, N-(4-(3-aminobenzo[d]isothiazol-5-yl)-3-fluorophenyl)-4-ethoxy-1-(4-fluorophenyl)-2-oxo-1,2-dihydropyridine-3-carboxamide] | – | 6030
Nc1nccc(Oc2ccc(NC(=O)c3ccc(C(F)(F)F)n(-c4ccc(F)cc4)c3=O)cc2F)c1Cl [Example 28, N-(4-((2-amino-3-chloropyridin-4-yl)oxy)-3-fluorophenyl)-1-(4-fluorophenyl)-2-oxo-6-(trifluoromethyl)-1,2-dihydropyridine-3-carboxamide] | 8 | 18
Cc1c(C(=O)Nc2ccc(Oc3ccnc(N)c3Cl)c(F)c2)c(=O)n(-c2ccccc2)n1CC(C)(C)O [Example 29, N-(4-((2-amino-3-chloropyridin-4-yl)oxy)-3-fluorophenyl)-1-(2-hydroxy-2-methylpropyl)-5-methyl-3-oxo-2-phenyl-2,3-dihydro-1H-pyrazole-4-carboxamide] | 82 | 54
Cc1ccc(C(=O)Nc2ccc(Oc3ccnc(N(C(=O)C4CC4)C(=O)C4CC4)c3Cl)c(F)c2)c(=O)n1-c1ccc(F)cc1 [Example 31, N-(4-((3-chloro-2-(N-(cyclopropanecarbonyl)cyclopropanecarboxamido)pyridin-4-yl)oxy)-3-fluorophenyl)-1-(4-fluorophenyl)-6-methyl-2-oxo-1,2-dihydropyridine-3-carboxamide] | – | 3550
Cc1ccc(C(=O)Nc2ccc(NC(=O)c3cc(Br)cnc3N)c(F)c2)c(=O)n1-c1ccc(F)cc1 [Example 32, 2-amino-5-bromo-N-(2-fluoro-4-(1-(4-fluorophenyl)-6-methyl-2-oxo-1,2-dihydropyridine-3-carboxamido)phenyl)nicotinamide] | – | 1690
Cc1ccc(C(=O)Nc2ccc(NC(=O)c3cc(-c4cnn(C)c4)cnc3N)c(F)c2)c(=O)n1-c1ccc(F)cc1 [Example 34, 2-amino-N-(2-fluoro-4-(1-(4-fluorophenyl)-6-methyl-2-oxo-1,2-dihydropyridin-3-carboxamido)phenyl)-5-(1-methyl-1H-pyrazol-4-yl)nicotinamide] | 7880 | 1560

The next compounds have a lower IC50 [2] than those just listed; values first:

IC50 [1] [nM] | IC50 [2] [nM] | Compound
44 | 11 | Cc1c(C(=O)Nc2ccc(Oc3ccnc(N)c3Cl)c(F)c2)c(=O)n(-c2ccccc2)n1C [Example 24, N-(4-((2-amino-3-chloropyridin-4-yl)oxy)-3-fluorophenyl)-1,5-dimethyl-3-oxo-2-phenyl-2,3-dihydro-1H-pyrazole-4-carboxamide]
1 | 2 | Cc1ccc(C(=O)Nc2ccc(Oc3ccnc(N)c3Cl)c(F)c2)c(=O)n1-c1ccc(F)cc1 [Example 25, N-(4-((2-amino-3-chloropyridin-4-yl)oxy)-3-fluorophenyl)-1-(4-fluorophenyl)-6-methyl-2-oxo-1,2-dihydropyridine-3-carboxamide]
3 | 3 | Nc1nccc(Oc2ccc(NC(=O)c3ccc(CO)n(-c4ccc(F)cc4)c3=O)cc2F)c1Cl [Example 26, N-(4-((2-amino-3-chloropyridin-4-yl)oxy)-3-fluorophenyl)-1-(4-fluorophenyl)-6-(hydroxymethyl)-2-oxo-1,2-dihydropyridine-3-carboxamide]
2 | 6 | Nc1nccc(Oc2ccc(NC(=O)c3cc(C4CC4)cn(-c4ccc(F)cc4)c3=O)cc2F)c1Cl [Example 27, N-(4-((2-amino-3-chloropyridin-4-yl)oxy)-3-fluorophenyl)-5-cyclopropyl-1-(4-fluorophenyl)-2-oxo-1,2-dihydropyridine-3-carboxamide]
25 | 12 | Cc1ccc(C(=O)Nc2ccc(Oc3ccnc(NC(=O)C4CC4)c3Cl)c(F)c2)c(=O)n1-c1ccc(F)cc1 [Example 30, N-(4-((3-chloro-2-(cyclopropanecarboxamido)pyridin-4-yl)oxy)-3-fluorophenyl)-1-(4-fluorophenyl)-6-methyl-2-oxo-1,2-dihydropyridine-3-carboxamide]
7 | 14 | Cc1ccc(C(=O)Nc2ccc(Oc3ncnc(N)c3Cl)c(F)c2)c(=O)n1-c1ccc(F)cc1 [Example 36, N-(4-((6-amino-5-chloropyrimidin-4-yl)oxy)-3-fluorophenyl)-1-(4-fluorophenyl)-6-methyl-2-oxo-1,2-dihydropyridine-3-carboxamide]
